Measurements as given in patent US12195490B2, “STRAD-binding agents and uses thereof” (The Regents of the University of California, priority 2020, dated 2025).

Each compound was assayed on ACHN cell line (assay: drug screen of the SelleckChem kinase inhibitor library with and without 5 uM SU-329, Cell-Titer Glo after 5 days). Details: kinase inhibitor at 200 nM with and without 5 uM SU329; ACHN cell line; 5 days; Cell-Titer Glo.
Format: cell-based

| Compound | log2fc |
| --- | --- |
| Cc1cnc(-c2cnc(NCCNc3ccc(C#N)cn3)nc2-c2ccc(Cl)cc2Cl)[nH]1 [CHIR-99021 (CT99021)] | 1.316 |
| Cc1cc(Nc2cc(N3CCN(C)CC3)nc(/C=C/c3ccccc3)n2)n[nH]1 [ENMD-2076] | 0.6799 |
| CCCNC(=O)Nc1ccc(Oc2ncnc3cc(OC)c(OC)cc23)cc1Cl [KRN 633] | 0.02524 |
| O=C(NOCC1CC1)c1ccc(F)c(F)c1Nc1ccc(I)cc1Cl [PD184352 (CI-1040), PD184352, reference compound] | 0.3257 |
| Nc1ncnc2c1c(-c1cnc3[nH]ccc3c1)nn2C1CCCC1 [PP121] | −0.5206 |
| Cc1[nH]c(/C=C2\C(=O)Nc3ccc(S(=O)(=O)N(C)c4cccc(Cl)c4)cc32)c(C)c1C(=O)N1CCN(C)CC1 [SU11274] | 0.1013 |
| Cc1cc(NC(=O)c2cccc(NC(=O)/C=C/CN(C)C)c2)ccc1Nc1nccc(-c2cccnc2)n1 [JNK-IN-8] | 0.5696 |
| COc1cc(Nc2ncc(F)c(Nc3ccc4c(n3)N(COP(=O)(O)O)C(=O)C(C)(C)O4)n2)cc(OC)c1OC [Fostamatinib (R788)] | 0.7242 |
| Cn1cc(C2=C(c3cn(C4CCN(Cc5ccccn5)CC4)c4ccccc34)C(=O)NC2=O)c2ccccc21 [Enzastaurin (LY317615)] | 0.5814 |
| COc1cc2ncnc(Nc3ccc(Cl)cc3F)c2cc1OC [ZM 306416] | 0.5807 |
| Cc1ccc(Nc2nccc(N(C)c3ccc4c(C)n(C)nc4c3)n2)cc1S(N)(=O)=O [Pazopanib] | −0.1316 |
| CC(C)c1cnn2c(NCc3ccccc3)cc(NCCCCCCN)nc12.Cl [BS-181 HCl] | 0.09476 |
| Cc1ccc(-c2nn(C(C)(C)C)c3ncnc(N)c23)cc1 [PP1] | 0.2956 |
| COc1cccc(-c2cc(=O)c3ccccc3o2)c1N [PD98059, reference compound] | 0.3369 |
| CCCCCCCCCCCCc1ccc(S(=O)(=O)Nc2nncs2)cc1 [PHT-427] | −0.02861 |
| Cc1cc2c(F)c(Oc3ncnn4cc(OC[C@@H](C)O)c(C)c34)ccc2[nH]1 [Brivanib (BMS-540215)] | 0.1194 |
| NC(=O)Nc1sc(-c2ccc(F)cc2)cc1C(N)=O [TPCA-1] | −0.08928 |
| COc1cc2nccc(Oc3ccc(NC(=O)Nc4cc(C)on4)c(Cl)c3)c2cc1OC [Tivozanib (AV-951)] | 0.798 |
| N#CC1(c2ccc(NC(=O)c3cccnc3NCc3ccncc3)cc2)CCCC1 [Apatinib] | 0.257 |

| Compound | log2fc |
| --- | --- |
| COc1ccccc1-c1cc(Nc2cccc(CS(N)(=O)=O)c2)ncn1 [LDC000067] | −0.05049 |
| N#CCNC(=O)c1ccc(-c2ccnc(Nc3ccc(N4CCOCC4)cc3)n2)cc1 [Momelotinib (CYT387)] | −1.441 |
| COc1cc2nccc(Oc3ccc(NC(=O)C4(C(=O)Nc5ccc(F)cc5)CC4)cc3)c2cc1OC [Cabozantinib (XL184, BMS-907351)] | 0.001197 |
| Cc1ccc(NC(=O)c2ccc(CN3CCN(C)CC3)cc2)cc1Nc1nc(-c2cccnc2)cs1 [Masitinib (AB1010)] | 0.1874 |
| CNC(=O)CN1CCC(Oc2cc3c(Nc4cccc(Cl)c4F)ncnc3cc2OC)CC1 [Sapitinib (AZD8931), AZD8931, reference compound] | 0.358 |
| Cc1cc(C(C)Nc2ccccc2)c2nc(N3CCOCC3)cc(=O)n2c1 (stereo not drawn) [TGX-221] | −0.3415 |
| GZD824 Dimesylate | 1.434 |
| COc1c(C)c(C(=O)c2ccc(N)c(C(=O)[O-])c2)n2ccccc12.[Na+] [SSR128129E] | 0.3473 |
| O=C(NC[C@H](O)CO)c1ccncc1Nc1ccc(I)cc1F [Pimasertib (AS-703026), AS703026, reference compound] | 0.3252 |
| COC(=O)c1ccc2c(c1)NC(=O)/C2=C(\Nc1ccc(N(C)C(=O)CN2CCN(C)CC2)cc1)c1ccccc1 [Nintedanib (BIBF 1120)] | 0.7859 |
| CCN1/C(=C/C(C)=O)Sc2ccc(OC)cc21 [TG003] | 0.4163 |
| CC(C)CC(=O)Nc1n[nH]c2c1CN(C(=O)C1CCN(C)CC1)C2(C)C [PHA-793887] | −0.1187 |
| CCCCCCCCc1ccc(CCC(N)(CO)CO)cc1.Cl [Fingolimod (FTY720) HCl] | 0.7051 |
| Cc1cc(Nc2cc(N3CCN(C)CC3)nc(Sc3ccc(NC(=O)C4CC4)cc3)n2)n[nH]1 [Tozasertib (VX-680, MK-0457)] | 0.9265 |
| CN1CCN(c2cccc(Nc3nc4c(-c5ccc(S(C)(=O)=O)cc5)cccn4n3)c2)CC1 [CEP-33779] | −0.6078 |
| Nc1nc(N)c(N=O)c(OCC2CCCCC2)n1 [NU6027] | −0.2463 |
| Cn1cc(-c2ccc3ncc(Cc4ccc5ncccc5c4)n3n2)cn1 [NVP-BVU972] | 0.5846 |
| O=c1ccc2ccc(O)c(O)c2o1 [Daphnetin] | 0.08794 |
| Oc1ccc(Nc2nc(-c3ccc(Cl)cc3)cs2)cc1 [SKI II] | 0.06564 |

| Compound | log2fc |
| --- | --- |
| Nc1ccc(-c2ccc3ncc4ccc(=O)n(-c5cccc(C(F)(F)F)c5)c4c3c2)cn1 [Torin 2] | 1.267 |
| CCCS(=O)(=O)Nc1ccc(F)c(C(=O)c2c[nH]c3ncc(Cl)cc23)c1F [PLX-4720] | −0.05066 |
| O=c1sn(-c2cccc3ccccc23)c(=O)n1Cc1ccccc1 [Tideglusib] | −0.007073 |
| C=CC(=O)Nc1cccc(Sc2nc(Nc3ccc(N4CCN(C)CC4)cc3)ncc2Cl)c1 [WZ8040, reference compound] | 0.02092 |
| CN1CCC(CNc2ccc3ncc(-c4cccc(OC(F)(F)F)c4)n3n2)CC1 [SGI-1776 free base] | −0.0254 |
| Oc1c2ccccc2c2c3c(cccc13)N=N2 [SP600125, reference compound] | 0.06823 |
| O=C(NOCC(O)CO)c1cc(Br)c(F)c(F)c1Nc1ccc(I)cc1F (stereo not drawn) [PD318088] | 0.4184 |
| N[C@@H]1CCCN(c2c(/C=C3\SC(=O)NC3=O)cccc2-c2ccccc2)C1 [AZD1208] | −0.4967 |
| O=C(Nc1cccc(Nc2ncc(Br)c(NCCc3cnc[nH]3)n2)c1)N1CCCC1 [BX-912] | −0.4536 |
| O=C(NCc1cccc(O)c1)Nc1nc(-c2ccncc2)cs1 [RKI-1447] | −0.8453 |
| COc1ccc(S(=O)(=O)N(CCO)c2ccccc2CN(C)C/C=C/c2ccc(Cl)cc2)cc1.O=P(O)(O)O [KN-93 Phosphate] | 0.02491 |
| Cc1ccc(-n2nc(C(C)(C)C)cc2NC(=O)Nc2ccc(OCCN3CCOCC3)c3ccccc23)cc1 [Doramapimod (BIRB 796)] | −0.5477 |
| C#Cc1cccc(Nc2ncnc3cc4c(cc23)OCCOCCOCCO4)c1 [Icotinib] | 0.1182 |
| COc1cc(C(=O)NC2CCN(C)CC2)ccc1Nc1ncc2c(n1)N(C1CCCC1)CC(F)(F)C(=O)N2C [Ro3280] | 0.4269 |
| Cn1sc(=O)n(Cc2ccccc2)c1=O [TDZD-8] | 0.1552 |
| N#Cc1c(NC(=O)c2cccc3ccccc23)sc2c1CCCC2 [JNK Inhibitor IX] | 0.1814 |
| C[C@]1(O)C[C@@H](c2nc(-c3ccc4ccc(-c5ccccc5)nc4c3)c3c(N)nccn32)C1 [Linsitinib (OSI-906)] | 0.08978 |
| CCc1cc(Nc2nccc(-c3c(-c4ccc(OC)c(C(=O)Nc5c(F)cccc5F)c4)nc4ccccn34)n2)c(OC)cc1N1CCC(N2CCN(S(C)(=O)=O)CC2)CC1 [GSK1904529A] | 0.6211 |
| CCc1cncnc1N1CCN(Cc2nc3ccc(C(F)(F)F)cc3[nH]2)CC1 [PF-4708671] | 0.5187 |
